Measurements taken from patent publication US20250296940A1, “ANNULATED 2-AMINO-3-CYANO THIOPHENES AND DERIVATIVES FOR THE TREATMENT OF CANCER” (Boehringer Ingelheim Int'l GmbH Corp., priority 2021, published 2025).
≈ marks a conversion by molar mass, not a printed value. Read-outs that look alike come from different tables or passages of the source.

What was measured:
[1] = biological target: T1, protein-protein interaction between SOS1 and KRAS G12C (Homo sapiens, UniProt P01116, C118S/C51S/C80L/G12C); assay: KRAS::SOS1 AlphaScreen Binding Assay; settings: Table 20, compounds (I); 7.5 nM KRAS G12C, 10 μM GDP, 5 nM GST-SOS1
T1 construct: His6 (N); SOS1: in-house or Viva Biotech Ltd; host or cells: E. coli (KRAS)
Description: This assay can be used to examine the potency with which compounds according to the invention binding to KRAS G12C inhibit the protein-protein interaction between SOS1 and KRAS G12C. […] Low IC50 values in this assay setting are indicative of strong inhibition of protein-protein interaction between SOS1 and KRAS:
• GST-tagged SOS1 (564_1049_GST_TEV_ECO) produced in-house • GST-TEV-SOS1 (564-1049) is purchased from Viva Biotech Ltd. • The expression construct of KRAS G12C (amino acids 1-169 of reference sequence P01116-2 (uniprot), with additional mutations: C51S, C80L, and C118S) containing a C-terminal avi-tag was obtained by gene synthesis (GeneArt, Thermo Fisher) in donor vector (pDONR-221) and transferred by recombinant cloning into pDEST17 vector bearing an N-terminal His6-tag. The protein was expressed in E. coli and the purified protein was biotinylated with the E. coli biotin ligase (BirA) before usage. • GDP (Sigma Cat No G7127) • AlphaLISA Glutathione Acceptor Beads (PerkinElmer, Cat No AL109) • AlphaScreen Streptavidin Donor Beads (PerkinElmer Cat No 6760002) • Assay plates: Proxiplate-384 PLUS, white (PerkinElmer, Cat No 6008289)
7.5 nM (final assay concentration) KRAS G12C, 10 μM (final assay concentration) GDP and 5 nM (final assay concentration) GST-SOS1 are mixed in assay buffer prior to use and kept at room temperature.
AlphaLISA Glutathione Acceptor Beads and AlphaScreen Streptavidin Donor Beads are mixed in assay buffer at a concentration of 10 μg/mL (final assay concentration) each prior to use and kept at room temperature.
Compounds are diluted to a final start concentration of 100 μM and are tested in duplicate. Assay-ready plates (ARPs) are generated using an Access Labcyte Workstation with a Labcyte Echo 550 or 555 acoustic dispenser. For compound a start concentration of 100 μM, 150 nL of compound solution is transferred per well in 11 concentrations in duplicate with serial 1:5 dilutions.
The assay is run using a fully automated robotic system in a darkened room below 100 Lux. 10 μL of KRAS::SOS1 GDP mix is added into columns 1-24 to the 150 nL of compound solution (final dilution in the assay 1:100, final DMSO concentration 1%).
After 30 minutes incubation time 5 μL of bead mix is added into columns 1-23. Plates are kept at room temperature in a darkened incubator. After further 60 minutes incubation, the signal is measured using a PerkinElmer Envision HTS Multilabel Reader using the AlphaScreen specifications from PerkinElmer. Each plate contains the following controls: • diluted DMSO+KRAS::SOS1 GDP mix+bead mix • diluted DMSO+KRAS::SOS1 GDP mix
IC50 values are calculated and analyzed using a 4 parametric logistic model.
Tables of example compounds disclosed herein contain IC50 values determined using the above assay.

[2] = tested on: NCI-H358 cells (NSCLC, G12C); assay: NCI-H358 CTG proliferation assay (120 h); type: cell-based; settings: Homo sapiens, NCI-H358, CellTiter-Glo
Method: NCI-H358 cells (ATCC No. CRL-5807) are dispensed into white bottom opaque 96 well plates (Perkin Elmer cat no. 5680) at a density of 2000 cells per well in 100 μL RPMI-1640 ATCC-Formulation (Gibco #A10491)+10% FCS (fetal calf serum). […] Compounds (10 mM stock in DMSO) are added at logarithmic dose series using the HP Digital Dispenser D300 (Tecan), normalizing for added DMSO and including DMSO controls. For the TO time point measurement, untreated cells are analyzed at the time of compound addition. Plates are incubated for 120 h, and cell viability is measured using CellTiter-Glo luminescent cell viability reagent (Promega product code G7570). Viability (stated as percent of control) is defined as relative luminescence units RLU of each well divided by the RLU of cells in DMSO controls. IC50 values are determined from viability measurements by non-linear regression using a four parameter model.
IC50 values of representative compounds according to the invention measured with these assays in the indicated cell lines: […]

[3] = Solubility measurement (DMSO solution precipitation method); type: physicochemical; settings: aqueous buffer, kinetic from dmso stock, ambient temperature
Method: The DMSO solution is diluted with an aqueous medium (McIlvaine buffer with pH=4.5 or 6.8) to a final concentration of 250 μM. After 24 h of shaking at ambient temperature a potentially formed precipitate is removed by filtration. The concentration of the test compound in the filtrate is determined by LC-UV methods by calibrating the signal to the signal of a reference solution with complete dissolution of the test compound in acetonitrile/water (1:1) with known concentration.
Data obtained with the disclosed assay for a selection of compounds (I) according to the invention: […]

[4] = biological target: Ba/F3 KRASG12C cells (Homo sapiens, UniProt P01116, G12C, cells depend on it); assay: Ba/F3 cell model proliferation assay (AlamarBlue, 72 h); type: cell-based; settings: without IL-3, read-out: IC50 Ba/F3 KRASG12C
Method: Plasmids containing KRASG12 mutants were obtained from GeneScript. […] Retrovirus was added to Ba/F3 cells. To ensure infection, 4 μg/mL polybrene was added and cells were spinfected. […] As a control, parental Ba/F3 cells were used to show selection status. Selection was considered successful when parental Ba/F3 cells cultures died. […] Ba/F3 cells harboring the empty vector were used as a control. Approximately ten days before conducting the experiments, puromycin was left out.
Compounds were added using an Access Labcyte Workstation with a Labcyte Echo 550 or 555 acoustic dispenser. All treatments were performed in technical duplicates. The assay is run using a fully automated robotic system. […] AlamarBlue™ (ThermoFisher), a viability stain, was added and fluorescence measured in the PerkinElmer Envision HTS Multilabel Reader. The raw data were imported into and analyzed with the Boehringer Ingelheim proprietary software MegaLab (curve fitting based on the program PRISM, GraphPad Inc.).

[5] = McIlvaine buffer pH 4.5, 24 h, read-out: Solubility pH 4.5
[6] = McIlvaine buffer pH 6.8, 24 h, read-out: Solubility pH 6.8

T1 sequence (P01116 1-169 isoform P01116-2 G12C/C51S/C80L/C118S): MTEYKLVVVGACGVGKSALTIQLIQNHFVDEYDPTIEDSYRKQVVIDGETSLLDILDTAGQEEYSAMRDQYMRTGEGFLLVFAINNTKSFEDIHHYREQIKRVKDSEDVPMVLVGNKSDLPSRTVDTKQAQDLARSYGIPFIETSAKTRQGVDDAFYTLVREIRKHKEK
Sequence of Ba/F3 KRASG12C cells (P01116 whole entry G12C): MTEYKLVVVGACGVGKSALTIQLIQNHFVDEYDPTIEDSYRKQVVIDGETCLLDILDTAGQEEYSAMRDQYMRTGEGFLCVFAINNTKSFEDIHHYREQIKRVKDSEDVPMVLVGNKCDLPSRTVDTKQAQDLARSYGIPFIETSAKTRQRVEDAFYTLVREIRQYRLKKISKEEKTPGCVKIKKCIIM

IC50 [1] | IC50 [2] | solubility at 24 h [3, 5] | solubility at 24 h [3, 6] | GI50 [4] | SMILES
2.1 nM | 2 nM | 113 µg/mL (≈ 167 µM) | 50 µg/mL (≈ 74.1 µM) | 1.6 nM | C=C(F)C(=O)N1[C@@H](C)CN(c2cc(-c3noc4c3CCC[C@@]43CCCc4sc(N)c(C#N)c43)nc(O[C@@H](C)[C@@H]3CCCN3C)n2)C[C@@H]1C [Ib-6]
4 nM | 7 nM | 116 µg/mL (≈ 172 µM) | < 1 µg/mL | 3.7 nM | C=C(F)C(=O)N1[C@@H](C)CN(c2cc(-c3onc4c3CCC[C@@]43CCCc4sc(N)c(C#N)c43)nc(O[C@@H](C)[C@@H]3CCCN3C)n2)C[C@@H]1C [Ia-3]
6.2 nM | 90 nM | 83 µg/mL (≈ 118 µM) | 114 µg/mL (≈ 163 µM) | 15.1 nM | COC/C=C/C(=O)N1[C@@H](C)CN(c2cc(-c3noc4c3CCC[C@@]43CCCc4sc(N)c(C#N)c43)nc(O[C@@H](C)[C@@H]3CCCN3C)n2)C[C@@H]1C [Ib-9]
1.7 nM | 1 nM | – | – | 0.5 nM | C[C@H](Oc1cc(N2C[C@H](C)N(C(=O)/C=C/CF)[C@@H](C)C2)nc(-c2noc3c2CCC[C@@]32CCCc3sc(N)c(C#N)c32)n1)[C@@H]1CCCN1C [Ib-1]
3.2 nM | 85 nM | 102 µg/mL (≈ 139 µM) | 13 µg/mL (≈ 17.7 µM) | 25.1 nM | C[C@H](Oc1nc(-c2noc3c2CCC[C@@]32CCCc3sc(N)c(C#N)c32)cc(N2C[C@H](C)N(C(=O)/C=C/c3cccnc3)[C@@H](C)C2)n1)[C@@H]1CCCN1C [Ib-8]
3.1 nM | 4 nM | > 139 µg/mL | 108 µg/mL (≈ 157 µM) | 1.6 nM | C[C@H](Oc1nc(-c2noc3c2CCC[C@@]32CCCc3sc(N)c(C#N)c32)cc(N2C[C@H](C)N(C(=O)/C=C/CF)[C@@H](C)C2)n1)[C@@H]1CCCN1C [Ib-7]
1.6 nM | 1 nM | 125 µg/mL (≈ 185 µM) | 57 µg/mL (≈ 84.5 µM) | 0.8 nM | C=C(F)C(=O)N1[C@@H](C)CN(c2cc(O[C@@H](C)[C@@H]3CCCN3C)nc(-c3onc4c3CCC[C@@]43CCCc4sc(N)c(C#N)c43)n2)C[C@@H]1C [Ia-1]
1.4 nM | < 1 nM | > 140 µg/mL | 129 µg/mL (≈ 196 µM) | 0.1 nM | C=CC(=O)N1[C@@H](C)CN(c2cc(-c3noc4c3CCC[C@@]43CCCc4sc(N)c(C#N)c43)nc(O[C@@H](C)[C@@H]3CCCN3C)n2)C[C@@H]1C [Ib-4]
< 1.5 nM | < 1 nM | > 156 µg/mL | 126 µg/mL (≈ 192 µM) | 0.1 nM | C=CC(=O)N1[C@@H](C)CN(c2cc(O[C@@H](C)[C@@H]3CCCN3C)nc(-c3onc4c3CCC[C@@]43CCCc4sc(N)c(C#N)c43)n2)C[C@@H]1C [Ia-2]
1.3 nM | 1 nM | 111 µg/mL (≈ 170 µM) | 77 µg/mL (≈ 118 µM) | 0.3 nM | C=CC(=O)N1CCN(c2cc(O[C@@H](C)[C@@H]3CCCN3C)nc(-c3noc4c3CCC[C@@]43CCCc4sc(N)c(C#N)c43)n2)CC12CC2 [Ib-2]
1.6 nM | 1 nM | 116 µg/mL (≈ 172 µM) | 40 µg/mL (≈ 59.3 µM) | 0.5 nM | C=C(F)C(=O)N1[C@@H](C)CN(c2cc(O[C@@H](C)[C@@H]3CCCN3C)nc(-c3noc4c3CCC[C@@]43CCCc4sc(N)c(C#N)c43)n2)C[C@@H]1C [Ib-5]
1.5 nM | < 1 nM | 130 µg/mL (≈ 198 µM) | 121 µg/mL (≈ 184 µM) | 0.2 nM | C=CC(=O)N1[C@@H](C)CN(c2cc(O[C@@H](C)[C@@H]3CCCN3C)nc(-c3noc4c3CCC[C@@]43CCCc4sc(N)c(C#N)c43)n2)C[C@@H]1C [Ib-3]
1.6 nM | < 1 nM | > 163 µg/mL | > 160 µg/mL | 0.1 nM | C=CC(=O)N1[C@@H](C)CN(c2cc(-c3onc4c3CCC[C@@]43CCCc4sc(N)c(C#N)c43)nc(O[C@@H](C)[C@@H]3CCCN3C)n2)C[C@@H]1C [Ia-4]
